Reference: patent US20240368191A1, “HETEROCYCLIC COMPOUNDS AND USES THEREOF” (Kumquat Biosciences Inc., priority 2021, published 2024)

Legend:
[1] = Metabolic (microsomal) stability assay; conditions: pooled liver microsomes, pH 7.4
Experimental: The metabolic stability of a test compound is assayed at 37° C. using pooled liver microsomes (mouse or human liver microsomes). An aliquot of 10 μL of 50 μM test compound is mixed with 490 μL of 0.611 mg/mL liver microsomes, then 50 μL of the mixtures are dispensed to the 96 well tubes and warmed at 37° C. for 10 minutes. The reactions are initiated by adding 50 μL of the pre-warmed NADPH regeneration system solution (add 1.2 μL solution, 240 μl solution B, mix with 10.56 ml KPBS) and then incubated at 37° C. The final incubation solution contains 100 mM potassium phosphate (pH 7.4), 1.3 mM NADP+, 3.3 mM glucose 6-phosphate, 0.4 Unit/mL of glucose 6-phosphate dehydrogenase, 3.3 mM magnesium chloride, 0.3 mg/mL liver microsomes and 0.5 μM test article. After 0, 15, 30 and 60 minutes in a shaking incubator, the reactions are terminated by adding 100 μL of acetonitrile containing 200 nM buspirone as an internal standard. All incubations are conducted in duplicate. […] Samples are then centrifuged at 3500 rpm for 10 minutes (4° C.) using Sorvall Legend XRT Centrifuge (Thermo Scientific, GE). Supernatants (40 μL) are transferred into clean 96-deep well plates. Each well is added with 160 μL of ultrapure water (Milli-Q, Millipore Corporation) with 0.1% (v/v) formic acid (Fisher Chemical), mixed thoroughly and subjected to LC/MS/MS analysis in MRM positive ionization mode.
All the samples are measured using a mass spectrometer (QTrap 5500 quadrupole/ion trap) coupled with a Shimadzu HPLC system. The HPLC system consisted of a Shimadzu series degasser, binary quaternary gradient pumps, column heater coupled to an autosampler, and a Phenomenex Gemini-NX, C18, 3.0 μm or Phenomenex Lunar, C8, 5.0 μM HPLC column (Phenomenex, Torrance, CA), and eluted with a mobile phase gradient consisting of Solution A (0.1% formic acid water) and Solution B (0.1% formic acid acetonitrile). The column temperature is maintained at 40° C. All the analytes are detected with positive-mode electrospray ionization (ES+).
The half-life for the metabolic degradation of the test compound is calculated by plotting the time-course disappearance of the test compound during the incubation with liver microsomes. Each plot is fitted to a first-order equation for the elimination of the test compound (% remaining compound) versus time using non-linear regression (Equation 1).
where Ct is the mean relative substrate concentration at time t and C0 is the initial concentration (0.5 μM) at time 0. Note that the area ratio of the substrate peak to an internal standard peak is proportional to the analyte concentration and is used for regression analysis to derive a value of k.

[2] = target: T1, KRAS G12D 1-169 (His-tagged, GDP-loaded) (Homo sapiens, UniProt P01116, G12D); experiment: Covalent modification of KRAS protein by intact-protein LC-MS; format: binding; conditions: comparable or same conditions as K-Ras G12S
T1 construct: His -tagged GDP-loaded G12D 1-169; made in house; host or cells: E. coli, e.g. BL21 (DE3)
T1 sequence (P01116 1-169 isoform P01116-2 G12D): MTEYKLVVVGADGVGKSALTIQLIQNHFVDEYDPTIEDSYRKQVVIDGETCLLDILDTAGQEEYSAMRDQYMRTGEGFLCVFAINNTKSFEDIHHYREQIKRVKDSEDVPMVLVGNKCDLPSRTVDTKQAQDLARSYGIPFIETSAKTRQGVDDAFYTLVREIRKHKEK
Experimental: Test compounds are prepared as 10 mM stock solutions in DMSO (Fisher cat #BP231-100). KRAS protein (His -tagged GDP-loaded wildtype 1-169, His -tagged GDP-loaded G12S 1-169 or His -tagged GDP-loaded G12D 1-169) is diluted to ˜2 μM in appropriate buffer (e.g., a Hepes buffer at physiological conditions). For testing KRAS modification, compounds are diluted to 50× final test concentration in DMSO in 96-well storage plates. 2 μl of the diluted 50× compounds are added to appropriate wells in the PCR plate (Fisher cat #AB-0800). ˜49 μl of the stock protein solution is added to each well of the 96-well PCR plate. Reactions are mixed carefully. The plate is sealed well with aluminum plate seal, and stored in drawer at room temperature for 24 hrs. 5 μl of 2% formic acid (Fisher cat #A117-50) in MilliQ H2O is then added to each well followed by mixing with a pipette. The plate is then resealed with aluminum seal and stored until mass spectrometry analysis.
The extent of covalent modification of KRAS proteins was determined by liquid chromatography electrospray mass spectrometry analysis of the intact proteins on a Thermo Q-Exactive Plus mass spectrometer. 20 μl of sample was injected onto a bioZen 3.6 μm Intact C4 column (Phenomenex cat #00B-4767-AN) placed in a column oven set to 40° C. and separated using a suitable LC gradient from ˜20% to ˜60% solvent B. Solvent A was 0.1% formic acid and solvent B was 0.1% formic acid in acetonitrile. HESI source settings were set to 40, 5 and 1 for the sheath, auxiliary and sweep gas flow, respectively. The spray voltage was 4 kV, and the capillary temperature was 320° C. S-lens RF level was 50 and auxiliary gas heater temperature was set to 200° C. The mass spectrometry was acquired using a scan range from 650 to 1750 m/z using positive polarity at a mass resolution of 70,000, AGC target of 1e6 ions and maximum injection time of 250 ms. The recorded protein mass spectrum was deconvoluted from the raw data file using Protein Deconvolution v4.0 (Thermo). The protein mass and adduct masses were exported with their peak intensities. The peak intensities for the unmodified and modified protein were used to calculate the percent covalent modification of the KRAS protein based on the following equation: % KRAS protein modification=((KRAS−compound)/(KRAS)+(KRAS−Compound))*100.

SMILES	half-life at 0.5 μM [1]	covalent labeling of K-Ras G12D [2]
Nc1nc2c(-c3c(Cl)cc4c(N5CCC56CCN(C(=O)n5cncn5)CC6)nc(OC[C@@]56CCCN5C[C@H](F)C6)nc4c3F)ccc(F)c2s1 [Compound A288, (1-(7-(2-amino-7-fluorobenzo-[d]thiazol-4-yl)-6-chloro-8-fluoro-2-(((2R,7aS)-2-fluoro-tetrahydro-1H-pyrrolizin-7a(5H)-yl)methoxy)quinazolin-4-yl)-1,7-diazaspiro[3.5]nonan-7-yl)(1H-1,2,4-triazol-1-yl)-methanone]	> 10 min	
N#Cc1c(N)sc2c(F)ccc(-c3c(Cl)cc4c(N5CCC6CN(C(=O)n7cncn7)CC65)nc(OC[C@@]56CCCN5C[C@H](F)C6)nc4c3F)c12 (stereo partly drawn) [Compound A178, 4-(4-(5-(1H-1,2,4-triazole-1-carbonyl)hexahydropyrrolo[3,4-b]pyrrol-1(2H)-yl)-6-chloro-8-fluoro-2-(((2R,7aS)-2-fluoro-tetrahydro-1H-pyrrolizin-7a(5H)-yl)methoxy)quinazolin-7-yl)-2-amino-7-fluorobenzo-[b]thiophene-3-carbonitrile]	> 10 min	
Nc1nc2c(-c3c(Cl)cc4c(N5CCOC6(CN(C(=O)n7cncn7)C6)C5)nc(OC[C@@]56CCCN5C[C@H](F)C6)nc4c3F)ccc(F)c2s1 [Compound A273, (8-(7-(2-amino-7-fluorobenzo-[d]thiazol-4-yl)-6-chloro-8-fluoro-2-(((2R,7aS)-2-fluoro-tetrahydro-1H-pyrrolizin-7a(5H)-yl)methoxy)quinazolin-4-yl)-5-oxa-2,8-diazaspiro[3.5]-nonan-2-yl)(1H-1,2,4-triazol-1-yl)methanone]	> 10 min	
Nc1nc2c(-c3c(Cl)cc4c(N5CC6(CN(C(=O)n7cncn7)CCO6)C5)nc(OC[C@@]56CCCN5C[C@H](F)C6)nc4c3F)ccc(F)c2s1 [Compound A268, (2-(7-(2-amino-7-fluorobenzo-[d]thiazol-4-yl)-6-chloro-8-fluoro-2-(((2R,7aS)-2-fluoro-tetrahydro-1H-pyrrolizin-7a(5H)-yl)methoxy)quinazolin-4-yl)-5-oxa-2,8-diazaspiro[3.5]-nonan-8-yl)(1H-1,2,4-triazol-1-yl)methanone]	> 10 min	
N#Cc1c(N)sc2c(F)ccc(-c3c(Cl)cc4c(N5CCC6(CN(C(=O)n7cncn7)C6)C5)nc(OC[C@@]56CCCN5C[C@H](F)C6)nc4c3F)c12 [Compound A277, 4-(4-(2-(1H-1,2,4-triazole-1-carbonyl)-2,6-diazaspiro[3.4]-octan-6-yl)-6-chloro-8-fluoro-2-(((2R,7aS)-2-fluorotetrahydro-1H-pyrrolizin-7a(5H)-yl)meth-oxy)quinazolin-7-yl)-2-amino-7-fluorobenzo[b]thiophene-3-carbonitrile]	> 10 min	
N#Cc1c(N)sc2c(F)ccc(-c3c(Cl)cc4c(N5CCCC6(CN(C(=O)n7cncn7)C6)C5)nc(OC[C@@]56CCCN5C[C@H](F)C6)nc4c3F)c12 [Compound A129, 4-(4-(2-(1H-1,2,4-triazole-1-carbonyl)-2,6-diazaspiro[3.5]-nonan-6-yl)-6-chloro-8-fluoro-2-(((2R,7aS)-2-fluorotetrahydro-1H-pyrrolizin-7a(5H)-yl)meth-oxy)quinazolin-7-yl)-2-amino-7-fluorobenzo[b]thiophene-3-carbonitrile]	> 10 min	
N#Cc1c(N)sc2c(F)ccc(-c3c(Cl)cc4c(N5CCC6C5CCCN6C(=O)n5cncn5)nc(OC[C@@]56CCCN5C[C@H](F)C6)nc4c3F)c12 (stereo partly drawn) [Compound A181, 4-(4-(4-(1H-1,2,4-triazole-1-carbonyl)octahydro-1H-pyrrolo[3,2-b]pyridin-1-yl)-6-chloro-8-fluoro-2-(((2R,7aS)-2-fluorotetrahydro-1H-pyrrol-izin-7a(5H)-yl)methoxy)quin-azolin-7-yl)-2-amino-7-fluoro-benzo[b]thiophene-3-carbonitrile]	> 10 min	
Cc1nc(C)n(C(=O)N2CC3(COCCN(c4nc(OC[C@@]56CCCN5C[C@H](F)C6)nc5c(F)c(-c6ccc(F)c7sc(N)c(C#N)c67)c(Cl)cc45)C3)C2)n1 [Compound A185, 2-amino-4-(6-chloro-4-(2-(3,5-dimethyl-1H-1,2,4-triazole-1-carbonyl)-6-oxa-2,9-diazaspiro-[3.6]decan-9-yl)-8-fluoro-2-(((2R,7aS)-2-fluorotetrahydro-1H-pyrrolizin-7a(5H)-yl)meth-oxy)quinazolin-7-yl)-7-fluoro-benzo[b]thiophene-3-carbonitrile]		essentially no detectable labeling
Nc1nc2c(-c3c(Cl)cc4c(N5CCCCC6(CN(C(=O)n7cncn7)C6)C5)nc(OC[C@@]56CCCN5C[C@H](F)C6)nc4c3F)ccc(F)c2s1 [Compound A265, (6-(7-(2-amino-7-fluorobenzo-[d]thiazol-4-yl)-6-chloro-8-fluoro-2-(((2R,7aS)-2-fluoro-tetrahydro-1H-pyrrolizin-7a(5H)-yl)methoxy)quinazolin-4-yl)-2,6-diazaspiro[3.6]decan-2-yl)(1H-1,2,4-triazol-1-yl)-methanone]		essentially no detectable labeling
Cc1ncn(C(=O)N2CC3CCN(c4nc(OC[C@@]56CCCN5C[C@H](F)C6)nc5c(F)c(-c6ccc(F)c7sc(N)c(C#N)c67)c(Cl)cc45)C3C2)n1 (stereo partly drawn) [Compound A304, 2-amino-4-(6-chloro-8-fluoro-2-(((2R,7aS)-2-fluorotetrahydro-1H-pyrrolizin-7a(5H)-yl)meth-oxy)-4-(5-(3-methyl-1H-1,2,4-triazole-1-carbonyl)hexahydro-pyrrolo[3,4-b]pyrrol-1(2H)-yl)quinazolin-7-yl)-7-fluoro-benzo[b]thiophene-3-carbonitrile]		essentially no detectable labeling
Cc1nc(C)n(C(=O)N2CC3(C2)CN(c2nc(OC[C@@]45CCCN4C[C@H](F)C5)nc4c(F)c(-c5ccc(F)c6sc(N)c(C#N)c56)c(Cl)cc24)CCO3)n1 [Compound A283, 2-amino-4-(6-chloro-4-(2-(3,5-dimethyl-1H-1,2,4-triazole-1-carbonyl)-5-oxa-2,8-diazaspiro-[3.5]nonan-8-yl)-8-fluoro-2-(((2R,7aS)-2-fluorotetrahydro-1H-pyrrolizin-7a(5H)-yl)meth-oxy)quinazolin-7-yl)-7-fluoro-benzo[b]thiophene-3-carbonitrile]		essentially no detectable labeling
Nc1nc2c(-c3c(Cl)cc4c(N5CCOC6(CCN(C(=O)n7cncn7)CC6)C5)nc(OCC56CCCN5C[C@H](F)C6)nc4c3F)ccc(F)c2s1 (stereo partly drawn) [Compound A243, (4-(7-(2-amino-7-fluorobenzo-[d]thiazol-4-yl)-6-chloro-8-fluoro-2-(((2R)-2-fluorotetra-hydro-1H-pyrrolizin-7a(5H)-yl)methoxy)quinazolin-4-yl)-1-oxa-4,9-diazaspiro[5.5]undecan-9-yl)(1H-1,2,4-triazol-1-yl)-methanone]		essentially no detectable labeling
Nc1nc2c(-c3c(Cl)cc4c(N5CCC6(CN(C(=O)n7cncn7)CCO6)C5)nc(OC[C@@]56CCCN5C[C@H](F)C6)nc4c3F)ccc(F)c2s1 (stereo partly drawn) [Compound A202, (2-(7-(2-amino-7-fluorobenzo-[d]thiazol-4-yl)-6-chloro-8-fluoro-2-(((2R,7aS)-2-fluoro-tetrahydro-1H-pyrrolizin-7a(5H)-yl)methoxy)quinazolin-4-yl)-6-oxa-2,9-diazaspiro[4.5]-decan-9-yl)(1H-1,2,4-triazol-1-yl)methanone]		essentially no detectable labeling
N#Cc1c(N)sc2c(F)ccc(-c3c(Cl)cc4c(N5CCOC6(CN(C(=O)n7cncn7)C6)C5)nc(OC[C@@]56CCCN5C[C@H](F)C6)nc4c3F)c12 [Compound A162, 4-(4-(2-(1H-1,2,4-triazole-1-carbonyl)-5-oxa-2,8-diaza-spiro[3.5]nonan-8-yl)-6-chloro-8-fluoro-2-(((2R,7aS)-2-fluoro-tetrahydro-1H-pyrrolizin-7a(5H)-yl)methoxy)quinazolin-7-yl)-2-amino-7-fluorobenzo-[b]thiophene-3-carbonitrile]		essentially no detectable labeling
N#Cc1c(N)sc2c(F)ccc(-c3c(Cl)cc4c(N5CCOC6(CN(C(=O)n7ccnn7)C6)C5)nc(OC[C@@]56CCCN5C[C@H](F)C6)nc4c3F)c12 [Compound A195, 4-(4-(2-(1H-1,2,3-triazole-1-carbonyl)-5-oxa-2,8-diazaspiro-[3.5]nonan-8-yl)-6-chloro-8-fluoro-2-(((2R,7aS)-2-fluoro-tetrahydro-1H-pyrrolizin-7a(5H)-yl)methoxy)quinazolin-7-yl)-2-amino-7-fluorobenzo-[b]thiophene-3-carbonitrile]		essentially no detectable labeling
